The source of these data is patent US20090247572A1, “AGENT FOR TREATING ATRIAL FIBRILLATION” (priority 2005, published 2009).

Assay [1] has as its system Canine Cardiac Atrioventricular Node Function. In words: Test of the Suppression of Canine Cardiac Atrioventricular Node Function. Type of assay: in vivo. Particulars: anesthetized male beagle dogs, 0.1 mg/kg intravenously, 1 hour after administration (compound A), 30 minutes (Verapamil), vs control group; for change in AH intervals in the His bundle electrocardiograms during high-frequent stimulation by pacing: pacing the right atrium at intervals of 400 msec and 300 msec. The text has this:
Male beagle dogs were employed in this test. Under halothane anesthesia, an electrode catheter was inserted from the left femoral artery and the front end thereof was placed in the non-coronary cusp of His bundle to thereby record the His bundle electrocardiogram. A pacing catheter was inserted via a sheath introducer placed in the right femoral vein and the front end thereof was fixed to the inner wall of the right atrium. Electrodes for recording body surface electrocardiogram were attached to the four limbs and thus the second-lead electrocardiogram was recorded. A drug was administered via the sheath introducer placed in the left femoral vein.
Verapamil, which was used as a comparative compound, was intravenously administered in a dose of 0.1 mg/kg. A group to which a vehicle was administered was referred to as the control group.
After the stabilization period following the surgical operation, AH intervals in the His bundle electrocardiograms were measured in the sinus rhythm and during pacing the right atrium at intervals of 400 msec and 300 msec. […] In the case of the comparative drug Verapamil, the AH intervals in the His bundle electrocardiogram as described above were measured before the administration and 30 minutes after the administration. The effect of a compound was expressed in the change in the AH intervals in the individual His bundle electrocardiograms in the sinus rhythm and during pacing the right atrium at intervals of 400 msec and 300 msec from the value before the administration of the drug and the data were compared with the data of the control group (Student's t-test) at a significant level of 5%. The term “AH interval in His bundle electrocardiogram” means the period of time wherein an electrical excitation generated at the atrium passes the atrioventricular node and arrives at His bundle.

Assay [2] deals with Anesthetized Swine Ventricular Rate. Nature of the assay: Test of Measurement of Anesthetized Swine Ventricular Rate. Type of assay: in vivo, pigs (Landrace/White F1). As to the method:
Male pigs (Landrace/White F1) were employed in this test. Under pentbarbital anesthesia, a thoracotomy was performed at the fourth right intercostal space and an electrode for electrical stimulation was attached to the right atrial surface thus exposed. Electrodes for recording body surface electrocardiogram were attached to the four limbs and thus the second-lead electrocardiogram was recorded. A catheter for drug administration was placed in the right femoral vein. Compound A was intravenously administered in a dose of 0.3 mg/kg. Atenolol, which was a β-blocker used as a comparative compound, was intravenously administered in a dose of 1 mg/kg. A group to which a vehicle was administered was referred to as the control group. A 50 Hz burst stimulation was applied to the right atrium via the electrode for electrical stimulation and the ventricular rate per minute was measured as R-waves in the body surface electrocardiogram. Thirty minutes after the administration of compound A or the comparative drug, a 50 Hz burst stimulation was applied again to the right atrium and then the R-waves per minute in the body surface electrocardiogram were measured.

In the case of `COc1ccc(CCN(C)CCCC(C#N)(c2ccc(OC)c(OC)c2)C(C)C)cc1OC` (centres unmarked) [Verapamil], in assay [1], the “change in AH intervals in the His bundle electrocardiograms during high-frequent stimulation by pacing” value (“change in AH intervals” for short) is on record as “significantly prolonged” and the “change in AH interval in the His bundle electrocardiogram in the sinus rhythm” value (shortened to “change in AH interval … in the sinus rhythm”) is given as “significantly prolonged”.

Consider `COc1cc2c(cc1OC)CC(=O)N(CCCN(C)C[C@H]1Cc3cc(OC)c(OC)cc31)CC2` [Ivabradine], for which, in assay [1], the “change in AH intervals” value is reported as “no significant difference at a significant level of 5% was observed” and the “change in AH interval … in the sinus rhythm” value is “do not suppress the atrioventricular node function in the sinus rhythm”.

On to `COc1cc2c(cc1OC)CN(C(=O)[C@@H]1CCCN(CCNC(=O)c3ccc(F)cc3)C1)CC2` [compound A, (−)-N-{2-[(R)-3-(6,7-dimethoxy-1,2,3,4-tetrahydroisoquinoline-2-carbonyl)piperidino]ethyl}-4-fluorobenzamide monophosphate], for which, in assay [1], the “change in AH intervals” value was “prolonged at a significant level of 1%” and the “change in AH interval … in the sinus rhythm” value is “no effect”. In addition, in assay [2] (anesthetized male pigs, 0.3 mg/kg intravenously, 30 minutes after administration, 50 Hz burst stimulation of right atrium, vs control group), the “change in ventricular rate (R waves per minute) during the 50 Hz burst stimulation” value is listed as “significantly decreases”. The “efficacy relative to Atenolol in controlling the ventricular rate” value in assay [2] (anesthetized pigs, compound A 0.3 mg/kg vs Atenolol 1 mg/kg intravenously) is “stronger by thrice or more”.
